Results as given in DBAASP.
In brackets after ≈: the same amount, converted by molar mass. Several values for one entry are separate records, joined by “and”; a condition that tells them apart may be missing. Identical values can stand only once.

Columns and labels:
Test in all cases: ≥ marks a high value that may be exact or a test limit, other limits are often not marked, values filed in µg/mL are converted to µM
[1] = test system: Colletotrichum graminicola
[2] = test system: Escherichia coli ATCC 25922
Fusarium oxysporum = test system: Fusarium oxysporum
Rhizoctonia solani = test system: Rhizoctonia solani
[3] = test system: Staphylococcus aureus ATCC 25923
[4] = test system: Candida albicans ATCC 90028
[5] = test system: Enterobacter cloacae HNTCC 53001
[6] = test system: Enterococcus faecalis ATCC 29212
[7] = test system: Klebsiella pneumoniae KK3 9904
[8] = test system: Proteus mirabilis ATCC 25933
[9] = test system: Pseudomonas aeruginosa ATCC 27853
[10] = test system: Staphylococcus aureus NCTC 8325
[11] = test system: Staphylococcus epidermidis RP62A
[12] = test system: Bacillus subtilis DSM 357
Bacillus subtilis L170 = test system: Bacillus subtilis L170
[13] = test system: Escherichia coli DH5alpha
Escherichia coli LWF+ = test system: Escherichia coli LWF+
[14] = test system: Burkholderia cepacia J2540
[15] = test system: Escherichia coli ATCC BAA-1025
[16] = test system: Escherichia coli DSM 1103
[17] = test system: Klebsiella pneumoniae ATCC 27736
[18] = test system: Listeria monocytogenes ATCC 19111
[19] = test system: Listeria monocytogenes ATCC 19112
[20] = test system: Listeria monocytogenes ATCC 19114
[21] = test system: Listeria monocytogenes F4244
[22] = test system: Pseudomonas aeruginosa ATCC 47085
[23] = test system: Pseudomonas aeruginosa DSM 1117
[24] = test system: Staphylococcus aureus ATCC 25904
[25] = test system: Staphylococcus aureus ATCC BAA-1717
[26] = test system: Staphylococcus aureus DSM 1104
[27] = test system: Staphylococcus epidermidis DSM 1798
[28] = test system: Enterococcus faecalis JCM 5803T
[29] = test system: Lactiplantibacillus plantarum ATCC 14917
[30] = test system: Latilactobacillus sakei subsp. sakei JCM 1157T
[31] = test system: Listeria innocua ATCC 33090T

For `CC(C)[C@H](NC(=O)[C@@H]1CCCN1C(=O)[C@@H](N)Cc1ccccc1)C(=O)N[C@H](C(=O)N[C@@H](Cc1c[nH]c2ccccc12)C(=O)N1CCC[C@H]1C(=O)N[C@H](C(=O)N[C@@H](CCCCN)C(=O)N[C@@H](Cc1c[nH]c2ccccc12)C(=O)N[C@@H](Cc1c[nH]c2ccccc12)C(=O)N[C@@H](CCCCN)C(=O)NCC(N)=O)[C@@H](C)O)[C@@H](C)O` [FPVTWPTKWWKG], the MIC [1] was at least 163 µM, the MIC [2] was > 125 µM and 163 µM and the MIC (Fusarium oxysporum) was at least 163 µM. The MIC (Rhizoctonia solani) was at least 41.8 µM and the MIC [3] was > 125 µM and 163 µM.
Work on `CC[C@H](C)[C@H](NC(=O)CNC(=O)[C@H](CCCCN)NC(=O)[C@H](Cc1ccccc1)NC(=O)[C@@H](NC(=O)[C@H](CCCCN)NC(=O)[C@H](CCCCN)NC(=O)[C@H](CC(C)C)NC(=O)[C@H](C)NC(=O)[C@H](CCCCN)NC(=O)[C@H](CC(C)C)NC(=O)CN)C(C)C)C(=O)N[C@@H](Cc1cnc[nH]1)C(=O)N[C@@H](CCCCN)C(=O)N[C@@H](C)C(=O)N[C@H](C(=O)N[C@@H](CCCCN)C(=O)N[C@@H](CC(C)C)C(=O)N[C@H](C(=O)N[C@@H](CC(N)=O)C(=O)N[C@@H](CCCCN)C(=O)N[C@@H](Cc1cnc[nH]1)C(=O)N[C@H](C(=O)N[C@@H](CCC(N)=O)C(=O)O)C(C)C)[C@@H](C)CC)[C@@H](C)CC` [GLKALKKVFKGIHKAIKLINKHVQ] yielded an MIC [4] of at least 80 µM, an MIC [5] of 2.5 µM (≈ 6.78 µg/mL) and an MIC [6] of over 80 µM. For the same compound, the MIC [2] was 5 µM (≈ 13.6 µg/mL), the MIC [7] was 5 µM (≈ 13.6 µg/mL) and the MIC [8] was at least 80 µM. For the same compound, the MIC [9] was 5 µM (≈ 13.6 µg/mL), the MIC [10] was 20 µM (≈ 54.2 µg/mL) and the MIC [11] was 10 µM (≈ 27.1 µg/mL).
With `CC(C)C[C@H](NC(=O)[C@H](C)NC(=O)[C@H](CC(C)C)NC(=O)[C@H](CCCCN)NC(=O)[C@H](Cc1c[nH]c2ccccc12)NC(=O)[C@H](C)NC(=O)[C@H](CCCCN)NC(=O)[C@H](CC(C)C)NC(=O)[C@H](C)NC(=O)[C@H](CC(C)C)NC(=O)[C@H](CCCCN)NC(=O)[C@H](CC(C)C)NC(=O)[C@H](C)NC(=O)[C@H](CC(C)C)NC(=O)[C@@H](N)CCCCN)C(=O)N[C@@H](CCCCN)C(=O)N[C@@H](C)C(=O)N[C@@H](C)C(N)=O` [KLALKLALKAWKLALKAA] the MIC [12] was 1.6 µM (≈ 3.12 µg/mL), the MIC (Bacillus subtilis L170) was 1.6 µM (≈ 3.12 µg/mL) and the MIC [13] was 5.2 µM (≈ 10.1 µg/mL). The MIC (Escherichia coli LWF+) was 10 µM (≈ 19.5 µg/mL).
Work on `CC[C@H](C)[C@H](NC(=O)[C@H](CCCCN)NC(=O)[C@H](CCCCN)NC(=O)[C@H](Cc1ccccc1)NC(=O)[C@H](CC(C)C)NC(=O)[C@H](CCCCN)NC(=O)[C@H](Cc1c[nH]c2ccccc12)NC(=O)[C@@H](N)CCCCN)C(=O)N[C@@H](Cc1ccccc1)C(=O)N[C@@H](CCCCN)C(=O)N[C@@H](CCCN=C(N)N)C(=O)N[C@H](C(=O)N[C@H](C(=O)N[C@@H](CCC(N)=O)C(=O)N[C@@H](CCCN=C(N)N)C(=O)N[C@H](C(=O)N[C@@H](CCCCN)C(=O)N[C@@H](CC(=O)O)C(=O)N[C@@H](Cc1ccccc1)C(=O)N[C@@H](CC(C)C)C(=O)N[C@@H](CCCN=C(N)N)C(=O)O)[C@@H](C)CC)C(C)C)[C@@H](C)CC` [KWKLFKKIFKRIVQRIKDFLR] yielded an MIC [14] of 11.2 µM (≈ 31.3 µg/mL).
With `CC[C@H](C)[C@H](NC(=O)[C@H](CCCCN)NC(=O)[C@@H](NC(=O)[C@H](CCC(N)=O)NC(=O)[C@@H](N)CCCNC(=N)N)[C@@H](C)CC)C(=O)N[C@@H](Cc1c[nH]c2ccccc12)C(=O)N[C@@H](Cc1ccccc1)C(=O)N[C@@H](CCC(N)=O)C(=O)N[C@@H](CC(N)=O)C(=O)N[C@@H](CCCNC(=N)N)C(=O)N[C@@H](CCCNC(=N)N)C(=O)N[C@@H](CCSC)C(=O)N[C@@H](CCCCN)C(=O)N[C@@H](Cc1c[nH]c2ccccc12)C(=O)N[C@@H](CCCCN)C(=O)N[C@@H](CCCCN)C(=O)O` [RQIKIWFQNRRMKWKK] the MIC [15] was 27.8 µM (≈ 62.5 µg/mL), the MIC [16] was at least 51 µM and the MIC [17] was at least 445 µM. For the same compound, the MIC [18] was at least 32 µM, the MIC [19] was at least 64 µM and the MIC [20] was at least 64 µM. For the same compound, the MIC [21] was at least 128 µM, the MIC [22] was at least 55.6 µM and the MIC [23] was at least 51 µM. It also gave an MIC [24] of at least 111 µM, an MIC [25] of at least 445 µM and an MIC [26] of at least 51 µM. For the same compound, the MIC [27] was 13 µM (≈ 29.2 µg/mL).
For `CC[C@H](C)[C@H](NC(=O)CNC(=O)CNC(=O)[C@@H]1CCCN1C(=O)[C@@H](N)[C@@H](C)O)C(=O)N[C@@H](CC(=O)O)C(=O)N[C@@H](Cc1ccccc1)C(=O)N[C@H](C(=O)N[C@@H](CO)C(=O)NCC(=O)NCC(=O)N1CCC[C@H]1C(=O)N[C@@H](Cc1cnc[nH]1)C(=O)N[C@H](C(=O)N[C@@H](C)C(=O)N[C@@H](CCC(N)=O)C(=O)N[C@@H](CC(=O)O)C(=O)N[C@H](C(=O)N[C@@H](CC(C)C)C(=O)N[C@@H](CC(N)=O)C(=O)N[C@@H](C)C(=O)N[C@H](C(=O)N[C@@H](CCCCN)C(=O)N[C@@H](CC(N)=O)C(=O)N[C@@H](Cc1ccccc1)C(=O)N[C@@H](Cc1ccccc1)C(=O)N[C@@H](CCCCN)C(=O)O)[C@@H](C)CC)C(C)C)C(C)C)[C@@H](C)CC` [TPGGIDFISGGPHVAQDVLNAIKNFFK], the MIC [28] was 0.3 µM (≈ 0.853 µg/mL), the MIC [29] was 1.2 µM (≈ 3.41 µg/mL) and the MIC [30] was 0.3 µM (≈ 0.853 µg/mL). The MIC [31] was 0.59 µM (≈ 1.68 µg/mL).
